Data as given in PubChem BioAssay AID192 (DTP/NCI, 2004).
Several values for one entry are separate records, joined by “and”; a condition that tells them apart may be missing. Identical values can stand only once. Inconclusive results and toxic doses are left out.

Test system: BDF1 mice, B16 melanoma ip, median survival T/C
Test: NCI In Vivo Anticancer Drug Screen. Data for tumor model B16 Melanoma (intraperitoneal) in B6D2F1 (BDF1) mice
Settings: endpoint: median survival time, higher = longer survival
How it was run: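 Antitumor activity is assessed in mice bearing a transplanted tumor, with survival or tumor size compared against vehicle-dosed controls and expressed as T/C.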

[1] = dose: 12.5 mg/kg/injection, schedule: Q01DX009 (ip), vehicle: Klucel (hydroxypropylcellulose) (HPC)
[2] = dose: 25.0 mg/kg/injection, schedule: Q01DX009 (ip), vehicle: Klucel (hydroxypropylcellulose) (HPC)
[3] = dose: 50.0 mg/kg/injection, schedule: Q01DX009 (ip), vehicle: Klucel (hydroxypropylcellulose) (HPC)
[4] = dose: 100.0 mg/kg/injection, schedule: Q01DX009 (ip), vehicle: Klucel (hydroxypropylcellulose) (HPC)
[5] = dose: 100.0 mg/kg/injection, schedule: Q04DX003 (ip), vehicle: Klucel (hydroxypropylcellulose) (HPC)
[6] = dose: 200.0 mg/kg/injection, schedule: Q04DX003 (ip), vehicle: Klucel (hydroxypropylcellulose) (HPC)
[7] = dose: 400.0 mg/kg/injection, schedule: Q04DX003 (ip), vehicle: Klucel (hydroxypropylcellulose) (HPC)
[8] = dose: 6.25 mg/kg/injection, schedule: Q01DX009 (ip), vehicle: saline
[9] = dose: 12.5 mg/kg/injection, schedule: Q01DX009 (ip), vehicle: saline
[10] = dose: 25.0 mg/kg/injection, schedule: Q01DX009 (ip), vehicle: saline
[11] = dose: 50.0 mg/kg/injection, schedule: Q01DX009 (ip), vehicle: saline
[12] = dose: 200.0 mg/kg/injection, schedule: Q01DX009 (ip), vehicle: Klucel (hydroxypropylcellulose) (HPC)
[13] = dose: 400.0 mg/kg/injection, schedule: Q01DX009 (ip), vehicle: Klucel (hydroxypropylcellulose) (HPC)
[14] = dose: 100.0 mg/kg/injection, schedule: Q01DX009 (ip), vehicle: saline
[15] = dose: 50.0 mg/kg/injection, schedule: Q01DX009 (ip), vehicle: saline with Tween-80
[16] = dose: 100.0 mg/kg/injection, schedule: Q01DX009 (ip), vehicle: saline with Tween-80
[17] = dose: 200.0 mg/kg/injection, schedule: Q01DX009 (ip), vehicle: saline with Tween-80
[18] = dose: 25.0 mg/kg/injection, schedule: Q01DX009 (ip), vehicle: saline with Tween-80

## COc1cccc2c1C(=O)c1c(O)c3c(c(O)c1C2=O)C[C@@](O)(/C(C)=N/NC(=O)c1ccc(S(N)(=O)=O)cc1)C[C@@H]3OC1CC(N)C(O)C(C)O1 (stereo partly specified)
dose: 3.13 mg/kg/injection, schedule: Q01DX009 (ip), vehicle: water
  T/C: 190 % of control
dose: 6.25 mg/kg/injection, schedule: Q01DX009 (ip), vehicle: water
  T/C: 258 % of control
dose: 12.5 mg/kg/injection, schedule: Q01DX009 (ip), vehicle: water
  T/C: 259 % of control

## CCO/C=C1\SC(=S)N(c2cccc(C)c2)C1=O
[1]
  T/C: 94 % of control
[2]
  T/C: 97 % of control
[3]
  T/C: 100 % of control
[4]
  T/C: 87 % of control
[5]
  T/C: 100 % of control
[6]
  T/C: 89 % of control
[7]
  T/C: 92 % of control

## Nc1c(Cl)cc(C(=O)NC2CC2)cc1Cl
[8]
  T/C: 92 % of control
[9]
  T/C: 102 % of control
[10]
  T/C: 113 % of control
[11]
  T/C: 97 % of control

## COc1c(Cl)c2c(c(OC)c1OC)-c1ccc(OC)c(=O)cc1C(NC(C)=O)CC2 (stereo unspecified)
dose: 0.38 mg/kg/injection, schedule: Q01DX009 (ip), vehicle: Klucel (hydroxypropylcellulose) (HPC)
  T/C: 118 % of control
dose: 0.75 mg/kg/injection, schedule: Q01DX009 (ip), vehicle: Klucel (hydroxypropylcellulose) (HPC)
  T/C: 123 % of control
dose: 3.0 mg/kg/injection, schedule: Q01DX009 (ip), vehicle: Klucel (hydroxypropylcellulose) (HPC)
  T/C: 109 % of control

## O=C(Nc1ccccc1)c1ccc(C(F)(F)F)cc1O
[2]
  T/C: 95 % of control
[3]
  T/C: 95 % of control

## CCOC(=O)CNC(=O)Sc1ccc(C(C)(C)C)cc1
[1]
  T/C: 97 % of control
[2]
  T/C: 101 % of control
[3]
  T/C: 104 % of control
[4]
  T/C: 106 % of control
[12]
  T/C: 106 % of control
[13]
  T/C: 120 % of control

## COc1ccc(C2c3cc4c(c(OC)c3CC3OCC(=O)C32)OCO4)cc1OC (stereo unspecified)
[1]
  T/C: 102 % of control
[2]
  T/C: 102 % of control
[3]
  T/C: 117 % of control

## CCN(C(=O)c1ccc(C(=O)N(CC)c2ccccc2)cc1)c1ccccc1
[3]
  T/C: 119 % of control
[4]
  T/C: 114 % of control
[12]
  T/C: 111 % of control

## CCCC(=O)O.CCCC(=O)O.CCCC(=O)O.CCCC(=O)O.[Rh].[Rh]
dose: 46.7 micrograms/kg/injection, schedule: Q08HX018 (ip), vehicle: saline + alcohol
  T/C: 98 % of control
dose: 77.8 micrograms/kg/injection, schedule: Q08HX018 (ip), vehicle: saline + alcohol
  T/C: 97 % of control
dose: 93.3 micrograms/kg/injection, schedule: Q01DX009 (ip), vehicle: saline + alcohol
  T/C: 98 % of control
dose: 156.0 micrograms/kg/injection, schedule: Q01DX009 (ip), vehicle: saline + alcohol
  T/C: 98 % of control
dose: 216.0 micrograms/kg/injection, schedule: Q08HX018 (ip), vehicle: saline + alcohol
  T/C: 88 % of control
dose: 259.0 micrograms/kg/injection, schedule: Q01DX009 (ip), vehicle: saline + alcohol
  T/C: 102 % of control

## CN(C)CCOCCOC(=O)N1c2ccccc2Sc2ccccc21
[8]
  T/C: 102 % of control
[9]
  T/C: 112 % of control
[10]
  T/C: 116 % of control
[11]
  T/C: 109 % of control

## Cc1c(N)nc(C(CC(N)=O)NCC(N)C(N)=O)nc1C(=O)NC(C(=O)NC(C)C(O)C(C)C(=O)NC(C(=O)NCCc1nc(-c2nc(C(=O)NCCCNCCCc3ccccn3)cs2)cs1)C(C)O)C(OC1OC(CO)C(O)C(O)C1OC1OC(CO)C(O)C(OC(N)=O)C1O)c1cnc[nH]1 (stereo unspecified)
dose: 1.5 mg/kg/injection, schedule: Q01DX009 (ip), vehicle: water
  T/C: 93 % of control
dose: 3.0 mg/kg/injection, schedule: Q01DX009 (ip), vehicle: water
  T/C: 102 % of control
dose: 6.0 mg/kg/injection, schedule: Q01DX009 (ip), vehicle: water
  T/C: 102 % of control and 105 % of control
dose: 12.0 mg/kg/injection, schedule: Q01DX009 (ip), vehicle: water
  T/C: 105 % of control and 110 % of control
dose: 24.0 mg/kg/injection, schedule: Q01DX009 (ip), vehicle: water
  T/C: 100 % of control

## C=CCc1ccc(C)c(C)c1O
dose: 100.0 mg/kg/injection, schedule: Q04DX003 (sc), vehicle: olive oil, sesame oil, peanut oil
  T/C: 91 % of control

## CCCCCC(C)(O)CCCCC
[14]
  T/C: 107 % of control
dose: 200.0 mg/kg/injection, schedule: Q01DX009 (ip), vehicle: saline
  T/C: 92 % of control

## ClC1=C(Cl)C(Cl)(Cl)C(Cl)(Cl)C1(Cl)Cl
[4]
  T/C: 103 % of control

## N=N/C(=C\c1c(O)[nH]c2ccccc12)c1ccccc1
[15]
  T/C: 98 % of control
[16]
  T/C: 105 % of control
[17]
  T/C: 98 % of control
dose: 400.0 mg/kg/injection, schedule: Q01DX009 (ip), vehicle: saline with Tween-80
  T/C: 89 % of control

## F
[8]
  T/C: 105 % of control
[9]
  T/C: 107 % of control
dose: 12.5 mg/kg/injection, schedule: Q04DX003 (ip), vehicle: saline
  T/C: 113 % of control
[10]
  T/C: 92 % of control
dose: 25.0 mg/kg/injection, schedule: Q04DX003 (ip), vehicle: saline
  T/C: 100 % of control and 124 % of control
dose: 50.0 mg/kg/injection, schedule: Q04DX003 (ip), vehicle: saline
  T/C: 94 % of control

## CCOc1ccc(Br)cc1/C=N\N=C\c1cc(Br)ccc1OCC
[1]
  T/C: 100 % of control
[2]
  T/C: 88 % of control and 105 % of control
[3]
  T/C: 89 % of control and 94 % of control

## CN(Cc1ccccc1)/N=N/c1nc[nH]c1C(N)=O
[18]
  T/C: 111 % of control
[15]
  T/C: 111 % of control
[16]
  T/C: 111 % of control
[17]
  T/C: 110 % of control

## COc1cccc(NC(=O)CCC(=O)O)c1
dose: 1.56 mg/kg/injection, schedule: Q01DX009 (ip), vehicle: Klucel (hydroxypropylcellulose) (HPC)
  T/C: 89 % of control
dose: 3.12 mg/kg/injection, schedule: Q01DX009 (ip), vehicle: Klucel (hydroxypropylcellulose) (HPC)
  T/C: 102 % of control
dose: 6.25 mg/kg/injection, schedule: Q01DX009 (ip), vehicle: Klucel (hydroxypropylcellulose) (HPC)
  T/C: 92 % of control
[1]
  T/C: 94 % of control

## COc1ccc(NC(=S)NNC(=S)NNc2ccccc2)cc1
[5]
  T/C: 97 % of control
[6]
  T/C: 93 % of control
[7]
  T/C: 86 % of control

## Cc1ccc(N=NN(C)C)cc1
dose: 12.5 mg/kg/injection, schedule: Q01DX009 (ip), vehicle: saline with Tween-80
  T/C: 113 % of control
[18]
  T/C: 115 % of control
[15]
  T/C: 106 % of control

## CC(C)(C)OC(=O)NC(CCCCNC(=O)C(F)(F)F)C(=O)ON1C(=O)CCC1=O (stereo unspecified)
dose: 25.0 mg/kg/injection, schedule: Q04DX003 (ip), vehicle: saline with Tween-80
  T/C: 114 % of control
dose: 50.0 mg/kg/injection, schedule: Q04DX003 (ip), vehicle: saline with Tween-80
  T/C: 115 % of control
dose: 100.0 mg/kg/injection, schedule: Q04DX003 (ip), vehicle: saline with Tween-80
  T/C: 90 % of control

## COc1ccc(Br)cc1
[15]
  T/C: 100 % of control
[16]
  T/C: 104 % of control

## O=c1[nH]c(=O)c2nc(-c3cccnc3)cnc2[nH]1
[9]
  T/C: 104 % of control
[10]
  T/C: 93 % of control
[11]
  T/C: 97 % of control
[14]
  T/C: 89 % of control

## O=c1c(O)c(-c2cc(O)c(O)c(O)c2)oc2cc(O)cc(O)c12
dose: 25.0 mg/kg/injection, schedule: Q02DX009 (ip), vehicle: saline with Tween-80
  T/C: 95 % of control
dose: 50.0 mg/kg/injection, schedule: Q02DX009 (ip), vehicle: saline with Tween-80
  T/C: 110 % of control
dose: 100.0 mg/kg/injection, schedule: Q02DX009 (ip), vehicle: saline with Tween-80
  T/C: 105 % of control

## CC(=O)N(C)N(Cc1ccc(C#N)cc1)C(C)=O
[2]
  T/C: 98 % of control
[3]
  T/C: 96 % of control
[4]
  T/C: 99 % of control
[12]
  T/C: 98 % of control
[13]
  T/C: 95 % of control

## O=C1c2ccc(Br)cc2-c2cc(Br)ccc21
[18]
  T/C: 87 % of control
[16]
  T/C: 93 % of control
